The values below come from patent USRE39708E1, “Estrogen receptor modulators” (Chiron Corporation, priority 1998, dated 2007).

The subject of the assay is MCF-7 cells. Nature of the assay: MCF-7 cell proliferation assay (BrdU incorporation). To be noted: MCF-7 proliferation, 24 hours, in the absence of estradiol or in the presence of 1 nM estradiol. The format is cell-based. As to the method:
MCF-7 cells are a common line of breast cancer cells used to determine in vitro estrogen receptor agonist/antagonist activity (MacGregor and Jordan 1998). The effect of a test compound on the proliferation of MCF-7 cells, as measured by the incorporation of 5-bromo-2′-deoxyuridine (“BrdU”) in a chemiluminescent assay format, can be used to determine the relative agonist/antagonist activity of the test compound. MCF-7 cells (ATCC HTB-22) are mainatined in log-phase culture. The cells are plated and incubated in phenol-free medium to avoid external sources of iS estrogenic stimulus (MacGregor and Jordan 1998). The test compound is added at varying concentrations to determine an IC50, for the compound. […]
This assay determines the estrogen agonist/antagonist activity of a test compound by the effect of the test compound on the proliferation of MCF-7 cells as measured by the incorporation of 5-bromo-2′-deoxyuridine (“BrdU”) in a chemiluminescent assay format. […]
The cells were cultured in the presence of test compounds for 24 hours at 37° C. and under a 5% CO2 atmosphere Cell proliferation was detected by measuring the level of BrdU incorporation into DNA. […] The plates were shaken for ten minutes at room temperature, and the resulting chemiluminescent signals were counted using a TRILUX scintillation counter.

Turning to `CCc1c(-c2ccc(O)cc2)nn(C2CCC2)c1-c1ccc(O)cc1` [4-[1-cyclobutyl-4-ethyl-5-(4-hydroxyphenyl)pyrazol-3-yl]phenol], the “concentration at which activity was demonstrated” value is on record as “less than one hundred”.
Under `CCc1c(-c2ccc(O)cc2)nn(-c2ccccc2C(F)(F)F)c1-c1ccc(O)cc1` [4-{4-ethyl-5-(4-hydroxyphenyl)-1-[2-(trifluoromethyl)phenyl]pyrazol-3-yl}phenol] stands “less than one hundred”.
